11 compounds from US20240360178A1, “MACROCYCLIC IMMUNOMODULATORS” (Bristol-Myers Squibb Company, priority 2021, published 2024) can be followed below.

Positions of bridges follow the written chain, without caps; N, C: chain ends. Non-standard residues stand in square brackets, D forms with d. Residues, ends and D or L forms follow the SMILES beside them. ξ: configuration not given here. *: point of attachment. Phe(4-CH2NH2) = NCc1ccc(C[C@H](N)C(=O)O)cc1; Bip = N[C@@H](Cc1ccc(-c2ccccc2)cc1)C(=O)O; Phe(3-Me) = Cc1cccc(C[C@H](N)C(=O)O)c1; Val(3-OH) = CC(C)(O)[C@H](N)C(=O)O; NMeF = CN[C@@H](Cc1ccccc1)C(=O)O; 4Pal = N[C@@H](Cc1ccncc1)C(=O)O; dTic = O=C(O)[C@H]1Cc2ccccc2CN1; Cha = N[C@@H](CC1CCCCC1)C(=O)O; Cit = NC(=O)NCCC[C@H](N)C(=O)O; Thr(3ξ) = CC(O)[C@H](N)C(=O)O; Carboxymethyl = O=C(O)C*; NMeA = CN[C@@H](C)C(=O)O; Dab = NCC[C@H](N)C(=O)O; Sar = CNCC(=O)O

The test deals with T1, human PD-1 (Jurkat-PD-1 cells) / PE-labeled human PD-L1-Ig (Homo sapiens, UniProt Q15116).
T1 construct: expressed in transfected cells; host or cells: Jurkat cell line over-expressing human PD-1
The experiment in a line: Jurkat-PD-1 Cell Binding High-Content Screening Assay (CBA); Jurkat hPD1-PDL1 assay. As to conditions: Jurkat cell line over-expressing human PD-1; PE-labeled PD-L1-Ig 20 nM final; compound incubated 2 hours at 37° C.; read-out: Jurkat HPD1-PDL1 IC50. The procedure, abridged:
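Jurkat-hPD-1 cells; cpd 2 h, 37° C; then PE-PD-L1-Ig 20 nM final in DMEM/10% FCS; high-content imaging read-out.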

T1 sequence (Q15116 25-288): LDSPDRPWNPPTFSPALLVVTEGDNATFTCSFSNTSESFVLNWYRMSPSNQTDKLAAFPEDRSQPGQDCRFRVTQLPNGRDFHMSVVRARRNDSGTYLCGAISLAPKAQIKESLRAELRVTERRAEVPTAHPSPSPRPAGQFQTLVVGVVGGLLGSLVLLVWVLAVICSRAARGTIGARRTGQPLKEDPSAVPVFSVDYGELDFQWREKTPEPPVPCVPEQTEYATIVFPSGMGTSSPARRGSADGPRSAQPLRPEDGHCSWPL

A word on the IC50: it is the midpoint of a concentration-inhibition curve. Turning to `CC(C)C[C@@H]1NC(=O)[C@H](Cc2c[nH]c3ccccc23)NC(=O)[C@H](CC(=O)O)NC(=O)[C@H](Cc2ccc(O)cc2)NC(=O)[C@H](Cc2ccccc2)NC(=O)CSC[C@@H](C(=O)N[C@@H](C)C(N)=O)NC(=O)[C@H](CO)NC(=O)[C@H](C(C)C)NC(=O)[C@H](CC(C)C)NC(=O)[C@H](CC(N)=O)NC(=O)[C@H]2Cc3ccccc3CN2C(=O)[C@H](C)N(C)C(=O)[C@H](C(C)C)NC(=O)[C@H](Cc2ccc(-c3ccccc3)cc2)NC1=O` [Example 1049] ({CH2CO}-FYDWL[Bip]V[NMeA][dTic]NLVSCA-NH2; thioether N-14), the IC50 came to 90 nM.

As to `Cc1cccc(C[C@@H]2NC(=O)[C@H](CC(=O)O)NC(=O)[C@H](Cc3ccc(OCC(=O)O)cc3)NC(=O)[C@H](Cc3ccncc3)NC(=O)CSC[C@@H](C(=O)N[C@@H](CCN)C(N)=O)NC(=O)[C@H](CO)NC(=O)[C@H](C(C)(C)O)NC(=O)[C@H](CC3CCCCC3)NC(=O)[C@H](CCN)NC(=O)[C@H]3CCCN3C(=O)[C@H](C)N(C)C(=O)[C@H](C(C)C)NC(=O)[C@H](Cc3ccc(-c4ccccc4)cc3)NC(=O)[C@H](Cc3ccc(OCC(=O)O)cc3)NC2=O)c1` [Example 1184] ({CH2CO}-[4Pal]Y(Carboxymethyl)D[Phe(3-Me)]Y(Carboxymethyl)[Bip]V[NMeA][dP][Dab][Cha][Val(3-OH)]SC[Dab]-NH2; thioether N-14), the IC50 was found to be 20 nM.

For `CC(C)C[C@@H]1NC(=O)[C@H](CCCNC(=N)N)NC(=O)[C@H](Cc2ccccc2)N(C)C(=O)[C@H](C)N(C)C(=O)[C@H](CCCNC(N)=O)NC(=O)[C@H](Cc2ccc(-c3ccccc3)cc2)NC(=O)[C@H](C(C)C)NC(=O)[C@H](Cc2c[nH]c3ccccc23)NC(=O)[C@H](CC(=O)O)NC(=O)[C@H](Cc2ccc(O)cc2)NC(=O)[C@H](CC(N)=O)NC(=O)CSC[C@@H](C(=O)N[C@@H](C)C(N)=O)NC(=O)[C@H](CO)NC(=O)[C@H](C(C)C)NC1=O` [Example 1377] ({CH2CO}-NYDWV[Bip][Cit][NMeA][NMeF]RLVSCA-NH2; thioether N-14), the IC50 turned out to be 40 nM.

Take `CC(C)C[C@@H]1NC(=O)[C@H](CCCNC(=N)N)NC(=O)[C@H](Cc2ccccc2)N(C)C(=O)[C@H](C)N(C)C(=O)[C@H](C)NC(=O)[C@H](Cc2ccc(-c3ccccc3)cc2)NC(=O)[C@H](C(C)C)NC(=O)[C@H](Cc2c[nH]c3ccccc23)NC(=O)[C@H](CC(=O)O)NC(=O)[C@H](Cc2ccc(O)cc2)NC(=O)[C@H](Cc2ccccc2)NC(=O)CSC[C@@H](C(=O)NCC(N)=O)NC(=O)[C@H](CO)NC(=O)[C@H](C(C)C)NC1=O` [Example 1208] ({CH2CO}-FYDWV[Bip]A[NMeA][NMeF]RLVSCG-NH2; thioether N-14): the IC50 amounted to 820 nM.

`CC(C)C[C@@H]1NC(=O)[C@H](CCCNC(=N)N)NC(=O)[C@H](Cc2ccccc2)N(C)C(=O)[C@H](C)N(C)C(=O)[C@H](CCCNC(=N)N)NC(=O)[C@H](Cc2ccc(-c3ccccc3)cc2)NC(=O)[C@H](C(C)C)NC(=O)[C@H](Cc2c[nH]c3ccccc23)NC(=O)[C@H](CC(=O)O)NC(=O)[C@H](Cc2ccc(O)cc2)NC(=O)[C@H](Cc2ccccc2)NC(=O)CSC[C@@H](C(=O)NCC(N)=O)NC(=O)[C@H](CCN)NC(=O)[C@H](C(C)C)NC1=O` [Example 1332] ({CH2CO}-FYDWV[Bip]R[NMeA][NMeF]RLV[Dab]CG-NH2; thioether N-14): the IC50 is 790 nM.

Regarding `CC(C)C[C@@H]1NC(=O)[C@H](CCCCN)NC(=O)[C@H](Cc2ccccc2)N(C)C(=O)[C@H](C)N(C)C(=O)[C@H](CCCNC(=N)N)NC(=O)[C@H](Cc2ccc(-c3ccccc3)cc2)NC(=O)[C@H](C(C)C)NC(=O)[C@H](Cc2c[nH]c3ccccc23)NC(=O)[C@H](CC(=O)O)NC(=O)[C@H](Cc2ccc(O)cc2)NC(=O)[C@H](CC(N)=O)NC(=O)CSC[C@@H](C(=O)N[C@@H](CO)C(N)=O)NC(=O)[C@H]([C@@H](C)O)NC(=O)[C@H](C(C)C)NC1=O` [Example 1354] ({CH2CO}-NYDWV[Bip]R[NMeA][NMeF]KLVTCS-NH2; thioether N-14), the IC50 was 210 nM.

Turning to `Cc1cccc(C[C@@H]2NC(=O)[C@H](CC(=O)O)NC(=O)[C@H](Cc3ccc(O)cc3)NC(=O)[C@H](CC(N)=O)NC(=O)CSC[C@@H](C(=O)N[C@@H](C)C(N)=O)NC(=O)[C@H]([C@@H](C)O)NC(=O)[C@H](C(C)C)NC(=O)[C@H](CC(C)C)NC(=O)[C@H](CCN)NC(=O)[C@H](Cc3ccccc3)N(C)C(=O)[C@H](C)N(C)C(=O)[C@H](CCCNC(N)=O)NC(=O)[C@H](Cc3ccc(-c4ccccc4)cc3)NC(=O)[C@H](C(C)C)NC2=O)c1` [Example 1374] ({CH2CO}-NYD[Phe(3-Me)]V[Bip][Cit][NMeA][NMeF][Dab]LVTCA-NH2; thioether N-14), the half-maximal inhibitory concentration (IC50) is 10 nM.

Regarding `CC(C)C[C@@H]1NC(=O)[C@H](Cc2c[nH]c3ccccc23)NC(=O)[C@H](CC(=O)O)NC(=O)[C@H](Cc2ccc(O)cc2)NC(=O)[C@H](Cc2ccccc2)NC(=O)CSC[C@@H](C(=O)NCC(N)=O)NC(=O)[C@H](C(C)O)NC(=O)[C@H](C(C)C)NC(=O)[C@H](CC(C)C)NC(=O)[C@H](CC(N)=O)NC(=O)CN(C)C(=O)[C@H](C)N(C)C(=O)[C@H](C(C)C)NC(=O)[C@H](Cc2ccc(-c3ccccc3)cc2)NC1=O` (some centres unmarked) [Example 1109] ({CH2CO}-FYDWL[Bip]V[NMeA][Sar]NLV[Thr(3ξ)]CG-NH2; thioether N-14), the IC50 amounted to 350 nM.

For `CC(C)C[C@@H]1NC(=O)[C@H](CCCNC(=N)N)NC(=O)[C@H](Cc2ccccc2)N(C)C(=O)[C@H](CCN)NC(=O)[C@H](CCCNC(=N)N)NC(=O)[C@H](Cc2ccc(-c3ccccc3)cc2)NC(=O)[C@H](C(C)C)NC(=O)[C@H](Cc2c[nH]c3ccccc23)NC(=O)[C@H](CC(=O)O)NC(=O)[C@H](Cc2ccc(O)cc2)NC(=O)[C@H](Cc2ccccc2)NC(=O)CSC[C@@H](C(=O)NCC(N)=O)NC(=O)[C@H](CO)NC(=O)[C@H](C(C)C)NC1=O` [Example 1255] ({CH2CO}-FYDWV[Bip]R[Dab][NMeF]RLVSCG-NH2; thioether N-14), the IC50 was 430 nM.

As to `CC(C)C[C@@H]1NC(=O)[C@H](Cc2c[nH]c3ccccc23)NC(=O)[C@H](CC(=O)O)NC(=O)[C@H](Cc2ccc(O)cc2)NC(=O)[C@H](Cc2c[nH]c3ccccc23)NC(=O)CSC[C@@H](C(=O)NCC(N)=O)NC(=O)[C@H](CO)NC(=O)[C@H](C(C)C)NC(=O)[C@H](CC(C)C)NC(=O)[C@H](CC(N)=O)NC(=O)CN(C)C(=O)[C@H](C)N(C)C(=O)[C@H](C(C)C)NC(=O)[C@H](Cc2ccc(-c3ccccc3)cc2)NC1=O` [Example 1135] ({CH2CO}-WYDWL[Bip]V[NMeA][Sar]NLVSCG-NH2; thioether N-14), the IC50 was 550 nM.

For `CC(C)C[C@@H]1NC(=O)[C@H](CCCNC(=N)N)NC(=O)[C@H](Cc2ccccc2)N(C)C(=O)[C@H](C)N(C)C(=O)[C@H](CCCNC(=N)N)NC(=O)[C@H](Cc2ccc(-c3ccccc3)cc2)NC(=O)[C@H](C(C)C)NC(=O)[C@H](Cc2c[nH]c3ccccc23)NC(=O)[C@H](CC(=O)O)NC(=O)[C@H](Cc2ccc(O)cc2)NC(=O)[C@H](Cc2ccc(CN)cc2)NC(=O)CSC[C@@H](C(=O)NCC(N)=O)NC(=O)[C@H](CO)NC(=O)[C@H](C(C)C)NC1=O` [Example 1256] ({CH2CO}-[Phe(4-CH2NH2)]YDWV[Bip]R[NMeA][NMeF]RLVSCG-NH2; thioether N-14), the IC50 is 340 nM.
